Inconclusive results and toxic doses are left out. Cut-off read from the data, not from the text of the source: active = T/C of 150% or more; inactive = T/C below 125%.
Tested on: L1210 leukemia ip in BDF1 mice, survival T/C
Assay: NCI In Vivo Anticancer Drug Screen. Data for tumor model L1210 Leukemia (intraperitoneal) in B6D2F1 (BDF1) mice
Conditions: endpoint: mean survival time, higher = longer survival
Summary of the method: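 Transplantable tumor model; survival measured in treated vs vehicle control mice. Value = treated/control.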

[1] = dose: 100.0 mg/kg/injection, schedule: Q01DX001 (ip), vehicle: carboxymethylcellulose (CMC)
[2] = dose: 200.0 mg/kg/injection, schedule: Q01DX001 (ip), vehicle: carboxymethylcellulose (CMC)
[3] = dose: 400.0 mg/kg/injection, schedule: Q01DX001 (ip), vehicle: carboxymethylcellulose (CMC)
[4] = dose: 6.25 mg/kg/injection, schedule: Q01DX009 (ip), vehicle: saline
[5] = dose: 12.5 mg/kg/injection, schedule: Q01DX009 (ip), vehicle: saline
[6] = dose: 12.5 mg/kg/injection, schedule: Q04DX003 (ip), vehicle: saline
[7] = dose: 25.0 mg/kg/injection, schedule: Q01DX009 (ip), vehicle: saline
[8] = dose: 25.0 mg/kg/injection, schedule: Q04DX003 (ip), vehicle: saline
[9] = dose: 100.0 mg/kg/injection, schedule: Q04DX002 (ip), vehicle: saline
[10] = dose: 200.0 mg/kg/injection, schedule: Q04DX002 (ip), vehicle: saline
[11] = dose: 400.0 mg/kg/injection, schedule: Q04DX002 (ip), vehicle: saline
[12] = dose: 100.0 mg/kg/injection, schedule: Q01DX001 (ip), vehicle: saline
[13] = dose: 100.0 mg/kg/injection, schedule: Q04DX003 (ip), vehicle: Klucel (hydroxypropylcellulose) (HPC)
[14] = dose: 200.0 mg/kg/injection, schedule: Q04DX003 (ip), vehicle: Klucel (hydroxypropylcellulose) (HPC)
[15] = dose: 400.0 mg/kg/injection, schedule: Q04DX003 (ip), vehicle: Klucel (hydroxypropylcellulose) (HPC)

Measured: T/C

ClC(Cl)(Cl)C/C=C\CBr
inactive: dose: 25.0 mg/kg/injection, schedule: Q01DX009 (ip), vehicle: acetone 98 % of control | dose: 50.0 mg/kg/injection, schedule: Q01DX009 (ip), vehicle: acetone 102 % of control | dose: 50.0 mg/kg/injection, schedule: Q04DX003 (ip), vehicle: acetone 97 % of control | dose: 100.0 mg/kg/injection, schedule: Q01DX001 (ip), vehicle: acetone 89 % of control | dose: 100.0 mg/kg/injection, schedule: Q01DX009 (ip), vehicle: acetone 93 % of control | dose: 100.0 mg/kg/injection, schedule: Q04DX003 (ip), vehicle: acetone 92 % of control | dose: 200.0 mg/kg/injection, schedule: Q01DX001 (ip), vehicle: acetone 91 % of control

Cc1cccc(C2=N/C(=C\c3ccccc3)C(=O)O2)c1
inactive: dose: 100.0 mg/kg/injection, schedule: Q04DX002 (ip), vehicle: saline with Tween-80 95 % of control | dose: 200.0 mg/kg/injection, schedule: Q04DX002 (ip), vehicle: saline with Tween-80 89 % of control | dose: 400.0 mg/kg/injection, schedule: Q04DX002 (ip), vehicle: saline with Tween-80 89 % of control

CCCCCCOc1ccc(C2=C(c3ccccc3)C(=O)C(c3ccccc3)=C2c2ccccc2)cc1
inactive: [1] 100 % of control | [2] 97 % of control | [3] 100 % of control

CC12CCC(CC(=O)O1)C2(C)C (configuration not stated)
inactive: dose: 75.0 mg/kg/injection, schedule: Q01DX001 (ip), vehicle: saline 114 % of control

CCCCCCCCNC12CC3CC(CC(C3)C1)C2
inactive: dose: 3.12 mg/kg/injection, schedule: Q01DX009 (ip), vehicle: saline 99 % of control | [4] 89 % of control | [5] 87 % of control | [6] 110 % of control | [7] 92 % of control | [8] 109 % of control

CCCC(SCC(=O)O)SCC(=O)O
inactive: dose: 100.0 mg/kg/injection, schedule: Q01DX009 (ip), vehicle: saline 93 % of control | [9] 97 % of control | dose: 200.0 mg/kg/injection, schedule: Q01DX009 (ip), vehicle: saline 100 % of control | [10] 100 % of control | [11] 95 % of control

CC(C)CCCC(C)C1CCC2C3CC(O)C4=CCCCC4(C)C3CCC12C (configuration not stated)
inactive: dose: 9.38 mg/kg/injection, schedule: Q01DX001 (ip), vehicle: other 97 % of control | dose: 18.75 mg/kg/injection, schedule: Q01DX001 (ip), vehicle: other 94 % of control | dose: 37.5 mg/kg/injection, schedule: Q01DX001 (ip), vehicle: other 94 % of control

Cc1ccccc1NC(=O)N(C)N
inactive: dose: 75.0 mg/kg/injection, schedule: Q01DX001 (ip), vehicle: carboxymethylcellulose (CMC) 93 % of control

COc1cc2c(cc1OC)N(C(C)=O)Cc1cccn1C2
inactive: dose: 12.5 mg/kg/injection, schedule: Q04DX002 (ip), vehicle: Klucel (hydroxypropylcellulose) (HPC) 94 % of control | dose: 25.0 mg/kg/injection, schedule: Q04DX002 (ip), vehicle: Klucel (hydroxypropylcellulose) (HPC) 94 % of control | dose: 50.0 mg/kg/injection, schedule: Q04DX002 (ip), vehicle: Klucel (hydroxypropylcellulose) (HPC) 94 % of control

CC1=[N+](C)C(C)(C)CC(C)O1 (configuration not stated)
inactive: [4] 105 % of control | dose: 6.25 mg/kg/injection, schedule: Q04DX003 (ip), vehicle: saline 94 % of control | [5] 96 % of control | [6] 105 % of control | [7] 105 % of control | [8] 96 % of control

O=P(O)(N(CCCl)CCCl)N1CCN(P(=O)(O)N(CCCl)CCCl)CC1
inactive: dose: 10.0 mg/kg/injection, schedule: Q01DX015 (ip), vehicle: saline 110 % of control | dose: 30.0 mg/kg/injection, schedule: Q01DX015 (ip), vehicle: saline 119 % of control | [12] 115 % of control | dose: 200.0 mg/kg/injection, schedule: Q01DX001 (ip), vehicle: saline 113 % of control | dose: 400.0 mg/kg/injection, schedule: Q01DX001 (ip), vehicle: saline 124 % of control

O=[N+]([O-])c1ccc(C=Nc2ccc(C(c3ccccc3)(c3ccccc3)c3ccccc3)cc2)s1
inactive: [13] 95 % of control | [14] 97 % of control | [15] 93 % of control

OC1C2CCN(CC2)C1CNC12CC3CC(CC(C3)C1)C2 (configuration not stated)
inactive: dose: 100.0 mg/kg/injection, schedule: Q04DX003 (ip), vehicle: saline 97 % of control | dose: 200.0 mg/kg/injection, schedule: Q04DX003 (ip), vehicle: saline 96 % of control

Cc1cc2c(c(Cl)n1)C(=O)OC2=O
inactive: dose: 75.0 mg/kg/injection, schedule: Q01DX001 (ip), vehicle: other 95 % of control | dose: 150.0 mg/kg/injection, schedule: Q01DX001 (ip), vehicle: other 95 % of control | dose: 300.0 mg/kg/injection, schedule: Q01DX001 (ip), vehicle: other 103 % of control

COCCNC(=O)N(CCOC)N=O
inactive: dose: 9.0 mg/kg/injection, schedule: Q01DX001 (ip), vehicle: saline 101 % of control | dose: 13.0 mg/kg/injection, schedule: Q01DX001 (ip), vehicle: saline 96 % of control | dose: 26.0 mg/kg/injection, schedule: Q01DX001 (ip), vehicle: saline 102 % of control | dose: 40.0 mg/kg/injection, schedule: Q01DX001 (ip), vehicle: saline 104 % of control | dose: 60.0 mg/kg/injection, schedule: Q01DX001 (ip), vehicle: saline 102 % of control | dose: 93.0 mg/kg/injection, schedule: Q01DX001 (ip), vehicle: saline 95 % of control | dose: 187.0 mg/kg/injection, schedule: Q01DX001 (ip), vehicle: saline 112 % of control | dose: 250.0 mg/kg/injection, schedule: Q01DX001 (ip), vehicle: saline 113 % of control | dose: 500.0 mg/kg/injection, schedule: Q01DX001 (ip), vehicle: saline 112 % of control

Cc1ccc(S(=O)(=O)OC2CCC(=O)C3CC4(CCC23)OCCO4)cc1 (configuration not stated)
inactive: dose: 100.0 mg/kg/injection, schedule: Q01DX001 (ip), vehicle: saline with Tween-80 91 % of control | dose: 200.0 mg/kg/injection, schedule: Q01DX001 (ip), vehicle: saline with Tween-80 87 % of control | dose: 400.0 mg/kg/injection, schedule: Q01DX001 (ip), vehicle: saline with Tween-80 95 % of control

COc1ccc(C(=O)OCCN(CCOC(=O)c2ccc(OC)cc2)c2c[nH]c(=O)[nH]c2=O)cc1
inactive: dose: 50.0 mg/kg/injection, schedule: Q01DX001 (ip), vehicle: carboxymethylcellulose (CMC) 106 % of control | [1] 93 % of control | [2] 95 % of control | [3] 93 % of control

N#Cc1cc(C#N)c(Cl)nc1N
inactive: dose: 100.0 mg/kg/injection, schedule: Q01DX009 (ip), vehicle: Klucel (hydroxypropylcellulose) (HPC) 94 % of control | [13] 97 % of control | dose: 200.0 mg/kg/injection, schedule: Q01DX009 (ip), vehicle: Klucel (hydroxypropylcellulose) (HPC) 95 % of control | [14] 95 % of control | [15] 106 % of control

Cc1ccc2c(ccc3nnc(C)n32)c1
inactive: dose: 50.0 mg/kg/injection, schedule: Q01DX001 (ip), vehicle: saline 109 % of control | [12] 103 % of control

N#CCCN(CCCN1CCOCC1)CN1C(=O)c2ccccc2C1=O
inactive: [9] 104 % of control | [10] 93 % of control | [11] 111 % of control
